What was measured:
[1] = test system: MDA-MB-231/ATCC; assay: NCI growth inhibition screen, breast panel; type: cell-based, human; design: key: = means equivalent activity; + means that it appears to be significantly better (i.e., by ˜2x); < means it appears to be less active than ET18OCH3 (˜2x); a combination like =/+ or </+ means that activity is dependent upon the isomer; a combination like =/+ or </+ means that activity is dependent upon the isomer; conditions: from GI50s
Experimental: (§1) Candidates deemed suitable for in vivo testing were then synthesized in large scale quantities and some of this material was sent to the NCI's Developmental Therapeutics Program for a battery of growth inhibitory studies against various human tumor cell lines (60 cell lines, 9 different panels). The remainder of the material was used to assess in vivo efficacy using murine tumor models. Additionally, studies were conducted on the lead candidates to discern mechanism of action with particular emphasis on these agents apoptotic ability as measured by caspase 3 activity. The details (materials and methods) for these various assays are described further in the following discussion.
(§2) Ten compounds were also sent to NCI's Drug Discovery Program for screening against numerous human tumor cell lines (9 panels total: renal ovarian, colon, CNS, non-small cell lung, leukemia, breast, melanoma, and prostate). The data are shown in FIGS. 2a-i which also include data regarding D- and L-ET-18-OCH3 (listed as L-EL and D-EL in the figures). Upon examining the data, one is struck by how 1R and 1a′S standout in comparison to the other compounds, especially for the renal, ovarian, colon, and CNS panels.

[2] = test system: NCI/ADR-RES; assay: NCI growth inhibition screen, breast panel; type: cell-based, human; design: key: = means equivalent activity; + means that it appears to be significantly better (i.e., by ˜2x); < means it appears to be less active than ET18OCH3 (˜2x); a combination like =/+ or </+ means that activity is dependent upon the isomer; a combination like =/+ or </+ means that activity is dependent upon the isomer; conditions: from GI50s
Experimental: as §1, §2

[3] = test system: MDA-N; assay: NCI growth inhibition screen, breast panel; type: cell-based, human; design: key: = means equivalent activity; + means that it appears to be significantly better (i.e., by ˜2x); < means it appears to be less active than ET18OCH3 (˜2x); a combination like =/+ or </+ means that activity is dependent upon the isomer; a combination like =/+ or </+ means that activity is dependent upon the isomer; conditions: from GI50s
Experimental: as §1, §2

[4] = test system: NCI-H226; assay: NCI growth inhibition screen, non-small cell lung panel; type: cell-based, human; design: key to Performance as compared to ET-18-O—CH3: = means equivalent activity; + means that it appears to be significantly better (i.e., by ˜2x); < means it appears to be less active than ET18OCH3 (˜2x); a combination like =/+ or </+ means that activity is dependent upon the isomer; a combination like =/+ or </+ means that activity is dependent upon the isomer; conditions: for Performance as compared to ET-18-O—CH3: NCI-H226, NS cell lung, from GI50s; for activity compared to ET-18-OCH3 (in words): NCI-H226 cell line, NCI screen
Experimental: as §1, §2

[5] = test system: platelets in dog whole blood
Experimental: Briefly, whole citrated blood is diluted 1:2 with sterile saline and placed in a warm chamber with a mini stir bar. An electronic probe, measuring electrical resistance, is inserted in the sample. The aggregometer is calibrated and the baseline is observed to detect any spontaneous aggregation. The test sample is added and allowed to run for at least 6 minutes. If the sample is an agonist the platelets will start to aggregate and stick to the electronic probe causing resistance across the electrodes to increase. This resistance, in ohms, is measured 6 minutes post addition of sample. The test samples are run at 25, 100, 200, 400 and 800 uM and compared to 100 uM L-ET-18-OCH3.
Collection of Blood Sample for in vitro Platelet Aggregation Testing: Venous blood is collected in 4.5 mL Vacutainer tubes containing 0.129 M sodium citrate using a 21G needle or larger. Blood is immediately mixed by gentle inversion 15-20 times and kept at room temperature. Dilution ratio is 1 to 9 (3.8% citrate solution:blood). One (2.0 mL) Vacutainer tube containing EDTA is also collected for platelet counts. Complete blood counts (CBC) are measured on the CDC Technologies Hemavet 1500 to ensure that the test subject's platelets are within normal range. Amy vials of hemolytic blood or blood containing any clots should be discarded. Platelet aggregation testing must be completed within 3 hours of blood collection. After this time the ability of platelets to aggregate decreases.
Dilutions were prepared in PBS or saline at 40× concentration. (25 uL test sample are added to 1000 uL diluted blood (1:40)).

Compound | Performance as compared to ET-18-O—CH3 [1] | Performance as compared to ET-18-O—CH3 [2] | Performance as compared to ET-18-O—CH3 [3] | Performance as compared to ET-18-O—CH3 [4] | activity compared to ET-18-OCH3 (in words) [4] | Platelet aggregation [5] | platelet aggregation response (in words) [5]
CCCCCCCCCCCCCCCCCCOC[C@@H](COP(=O)([O-])OCC[N+](C)(C)C)OS(C)(=O)=O [1a′S] | 0 | 0 | 0 | 32 | significantly better than ET-18-OCH3 |  | 
CCCCCCCCCCCCCCCCCCOCC(COP(=O)([O-])OCC[N+](C)(C)C)OS(C)(=O)=O (stereo not drawn) [Compound 1aR] | = | = | = | + | significantly better than ET-18-OCH3 |  | 
CCCCCCCCCCCCCCCCCCOCC(COP(=O)([O-])OCC[N+](C)(C)C)OC [D-ET18OCH3, 1-O-octadecyl-2-O-methyl-glycerophosphocholine, reference compound] |  |  |  |  |  | − | doesn't elicit an aggregation response

From patent US20060122153A1, “Antineoplastic ether lipid compounds with modifications at the sn-2 carbon” (priority 2003, published 2006)
